Measured values as given in ChEMBL document CHEMBL1649287, “Postantibiotic effect of ceftaroline against gram-positive organisms” (2009).
≈ marks a conversion by molar mass, not a printed value.

How the values were obtained:
Format in all cases: functional
Staphylococcus aureus [1] = test: Antimicrobial activity against methicillin-resistant, vancomycin-susceptible Staphylococcus aureus vs1 assessed as time required to induce sub-MIC effect at 0.3 times MIC after 1 hr by plate counting method; conditions: vs1, 1 h
Streptococcus pneumoniae [2] = test: Antimicrobial activity against Penicillin-, erythromycin-resistant Streptococcus pneumoniae 37 assessed as time required to induce post antibiotic sub-MIC effect at 0.3 times MIC after 1 hr by plate counting method; conditions: Streptococcus pneumoniae, 37, 1 h
Enterococcus faecalis [3] = test: Antimicrobial activity against vancomycin-resistant Enterococcus faecalis 266 assessed as time required to induce sub-MIC effect at 0.2 times MIC after 1 hr by plate counting method; conditions: Enterococcus faecalis, 266, 1 h
Enterococcus faecalis [4] = test: Antimicrobial activity against vancomycin-resistant Enterococcus faecalis 266 assessed as time required to induce post antibiotic sub-MIC effect at 0.2 times MIC after 1 hr by plate counting method; conditions: Enterococcus faecalis, 266, 1 h
Enterococcus faecalis [5] = test: Antimicrobial activity against vancomycin-sensitive Enterococcus faecalis ATCC 29212 assessed as time required to induce sub-MIC effect at 0.2 times MIC after 1 hr by plate counting method; conditions: ATCC 29212, 1 h
Enterococcus faecalis [6] = test: Antimicrobial activity against vancomycin-sensitive Enterococcus faecalis 10 assessed as time required to induce sub-MIC effect at 0.2 times MIC after 1 hr by plate counting method; conditions: Enterococcus faecalis, 10, 1 h
Streptococcus pneumoniae [7] = test: Antimicrobial activity against Penicillin-susceptible Streptococcus pneumoniae s502 by microdilution method
Enterococcus faecalis [8] = test: Antimicrobial activity against vancomycin-sensitive Enterococcus faecalis 20 assessed as time required to induce post antibiotic sub-MIC effect at 0.3 times MIC after 1 hr by plate counting method; conditions: Enterococcus faecalis, 20, 1 h
Enterococcus faecalis [9] = test: Antimicrobial activity against vancomycin-sensitive Enterococcus faecalis ATCC 29212 assessed as post antibiotic effect at 10 times MIC after 1 hr by plate counting method; conditions: ATCC 29212, 1 h
Staphylococcus aureus [10] = test: Antimicrobial activity against methicillin-resistant, vancomycin-intermediate Staphylococcus aureus 510 assessed as post antibiotic effect at 10 times MIC after 1 hr by plate counting method; conditions: Staphylococcus aureus, 510, 1 h
Streptococcus pneumoniae [11] = test: Antimicrobial activity against Penicillin-intermediate Streptococcus pneumoniae s1234 by microdilution method
Enterococcus faecalis [12] = test: Antimicrobial activity against vancomycin-sensitive Enterococcus faecalis 20 assessed as time required to induce sub-MIC effect at 0.2 times MIC after 1 hr by plate counting method; conditions: Enterococcus faecalis, 20, 1 h
Streptococcus pneumoniae [13] = test: Antimicrobial activity against Penicillin-susceptible Streptococcus pneumoniae ATCC 49617 assessed as time required to induce sub-MIC effect at 0.4 times MIC after 1 hr by plate counting method; conditions: ATCC 49617, 1 h
Enterococcus faecalis [14] = test: Antimicrobial activity against vancomycin-sensitive Enterococcus faecalis 20 by microdilution method
Enterococcus faecalis [15] = test: Antimicrobial activity against vancomycin-sensitive Enterococcus faecalis 10 assessed as post antibiotic effect at 10 times MIC after 1 hr by plate counting method; conditions: Enterococcus faecalis, 10, 1 h
Staphylococcus aureus [16] = test: Antimicrobial activity against methicillin-susceptible, vancomycin-susceptible Staphylococcus aureus sox1 assessed as time required to induce sub-MIC effect at 0.4 times MIC after 1 hr by plate counting method; conditions: sox1, 1 h
Enterococcus faecalis [17] = test: Antimicrobial activity against vancomycin-sensitive Enterococcus faecalis 20 assessed as time required to induce sub-MIC effect at 0.3 times MIC after 1 hr by plate counting method; conditions: Enterococcus faecalis, 20, 1 h
Staphylococcus aureus [18] = test: Antimicrobial activity against methicillin-resistant, vancomycin-intermediate Staphylococcus aureus 510 assessed as time required to induce post antibiotic sub-MIC effect at 0.4 times MIC after 1 hr by plate counting method; conditions: Staphylococcus aureus, 510, 1 h
Staphylococcus aureus [19] = test: Antimicrobial activity against methicillin-resistant, vancomycin-resistant Staphylococcus aureus 770 assessed as time required to induce post antibiotic sub-MIC effect at 0.3 times MIC after 1 hr by plate counting method; conditions: Staphylococcus aureus, 770, 1 h
Enterococcus faecalis [20] = test: Antimicrobial activity against vancomycin-resistant Enterococcus faecalis 609 assessed as time required to induce sub-MIC effect at 0.4 times MIC after 1 hr by plate counting method; conditions: Enterococcus faecalis, 609, 1 h
Staphylococcus aureus [21] = test: Antimicrobial activity against methicillin-susceptible, vancomycin-susceptible Staphylococcus aureus ATCC 29213 assessed as time required to induce sub-MIC effect at 0.3 times MIC after 1 hr by plate counting method; conditions: ATCC 29213, 1 h
Streptococcus pneumoniae [22] = test: Antimicrobial activity against Penicillin-, erythromycin-resistant Streptococcus pneumoniae 37 assessed as time required to induce sub-MIC effect at 0.4 times MIC after 1 hr by plate counting method; conditions: Streptococcus pneumoniae, 37, 1 h
Streptococcus pneumoniae [23] = test: Antimicrobial activity against Penicillin-susceptible Streptococcus pneumoniae s502 assessed as time required to induce sub-MIC effect at 0.4 times MIC after 1 hr by plate counting method; conditions: s502, 1 h
Streptococcus pneumoniae [24] = test: Antimicrobial activity against Penicillin-intermediate Streptococcus pneumoniae s1234 assessed as time required to induce sub-MIC effect at 0.4 times MIC after 1 hr by plate counting method; conditions: s1234, 1 h
Staphylococcus aureus [25] = test: Antimicrobial activity against methicillin-resistant, vancomycin-hetroresistant Staphylococcus aureus 618 assessed as time required to induce post antibiotic sub-MIC effect at 0.2 times MIC after 1 hr by plate counting method; conditions: Staphylococcus aureus, 618, 1 h
Staphylococcus aureus [26] = test: Antimicrobial activity against methicillin-resistant, vancomycin-intermediate Staphylococcus aureus 510 assessed as time required to induce sub-MIC effect at 0.4 times MIC after 1 hr by plate counting method; conditions: Staphylococcus aureus, 510, 1 h
Staphylococcus aureus [27] = test: Antimicrobial activity against Staphylococcus aureus ATCC 29213 infected in neutropenic ICR mouse assessed as post antibiotic effect at 1.56 to 100 mg/kg, sc administered 14 hrs post infection; conditions: dose mg/kg 1.56-100; route subcutaneous
Staphylococcus aureus [28] = test: Antimicrobial activity against methicillin-susceptible, vancomycin-susceptible Staphylococcus aureus ATCC 29213 by microdilution method
Staphylococcus aureus [29] = test: Antimicrobial activity against methicillin-susceptible, vancomycin-susceptible Staphylococcus aureus ATCC 29213 assessed as time required to induce post antibiotic sub-MIC effect at 0.4 times MIC after 1 hr by plate counting method; conditions: ATCC 29213, 1 h
Streptococcus pneumoniae [30] = test: Antimicrobial activity against Penicillin-susceptible Streptococcus pneumoniae s502 assessed as post antibiotic effect at 10 times MIC after 1 hr by plate counting method; conditions: s502, 1 h
Streptococcus pneumoniae [31] = test: Antimicrobial activity against Penicillin-susceptible Streptococcus pneumoniae s502 assessed as time required to induce post antibiotic sub-MIC effect at 0.2 times MIC after 1 hr by plate counting method; conditions: s502, 1 h
Enterococcus faecalis [32] = test: Antimicrobial activity against vancomycin-sensitive Enterococcus faecalis ATCC 29212 assessed as time required to induce sub-MIC effect at 0.3 times MIC after 1 hr by plate counting method; conditions: ATCC 29212, 1 h
Streptococcus pneumoniae [33] = test: Antimicrobial activity against Penicillin-intermediate Streptococcus pneumoniae s1234 assessed as post antibiotic effect at 10 times MIC after 1 hr by plate counting method; conditions: s1234, 1 h
Enterococcus faecalis [34] = test: Antimicrobial activity against vancomycin-resistant Enterococcus faecalis 266 by microdilution method
Enterococcus faecalis [35] = test: Antimicrobial activity against vancomycin-sensitive Enterococcus faecalis 10 assessed as time required to induce sub-MIC effect at 0.4 times MIC after 1 hr by plate counting method; conditions: Enterococcus faecalis, 10, 1 h

## CCO/N=C(\C(=O)N[C@@H]1C(=O)N2C(C(=O)[O-])=C(Sc3nc(-c4cc[n+](C)cc4)cs3)CS[C@H]12)c1nsc(NP(=O)(O)O)n1 [CEFTAROLINE FOSAMIL]
Staphylococcus aureus [1]
  time: 0.7 h
Streptococcus pneumoniae [2]
  time: 3 h
Enterococcus faecalis [3]
  time: 1.4 h
Enterococcus faecalis [4]
  time: 8.3 h
Enterococcus faecalis [5]
  PAE: 3.1 h
Enterococcus faecalis [6]
  PAE: 0.8 h
Streptococcus pneumoniae [7]
  MIC: 0.008 µg/mL (≈ 0.0117 µM)
Enterococcus faecalis [8]
  PAE: 8.6 h
Enterococcus faecalis [9]
  PAE: 0.8 h
Staphylococcus aureus [10]
  PAE: 1.4 h
Streptococcus pneumoniae [11]
  MIC: 0.12 µg/mL (≈ 0.175 µM)
Enterococcus faecalis [12]
  time: 0.9 h
Streptococcus pneumoniae [13]
  PAE: 0.8 h
Enterococcus faecalis [14]
  MIC: 0.5 µg/mL (≈ 0.73 µM)
Enterococcus faecalis [15]
  PAE: 0.5 h
Staphylococcus aureus [16]
  PAE: 1.6 h
Enterococcus faecalis [17]
  PAE: 1.3 h
Staphylococcus aureus [18]
  time: > 10 h
Staphylococcus aureus [19]
  time: 5 h
Enterococcus faecalis [20]
  time: 2.2 h
Staphylococcus aureus [21]
  PAE: 0.8 h
Streptococcus pneumoniae [22]
  time: 0.5 h
Streptococcus pneumoniae [23]
  PAE: 2.5 h
Streptococcus pneumoniae [24]
  PAE: 0.6 h
Staphylococcus aureus [25]
  time: 2.2 h
Staphylococcus aureus [26]
  time: 1.3 h
Staphylococcus aureus [27]
  PAE: 0.8 h
Staphylococcus aureus [28]
  MIC: 0.25 µg/mL (≈ 0.365 µM)
Staphylococcus aureus [29]
  PAE: > 10.5 h
Streptococcus pneumoniae [30]
  PAE: 1.8 h
Streptococcus pneumoniae [31]
  PAE: 2.7 h
Enterococcus faecalis [32]
  PAE: 3.6 h
Streptococcus pneumoniae [33]
  PAE: 0.7 h
Enterococcus faecalis [34]
  MIC: 2 µg/mL (≈ 2.92 µM)
Enterococcus faecalis [35]
  time: 1.8 h
